Reference: ChEMBL document CHEMBL1759996, “Design and synthesis of pyridin-2-yloxymethylpiperidin-1-ylbutyl amide CCR5 antagonists that are potent inhibitors of M-tropic (R5) HIV-1 replication” (Bioorg Med Chem Lett, 2011)

Legend:
[1] = tested on: Human immunodeficiency virus 1; experiment: Antiviral activity against Human immunodeficiency virus 1 BAL infected in human PBMC assessed as inhibition of viral replication by p24 antigen specific ELISA; type: functional, organism-based
[2] = Cytotoxicity against human PBMC; type: cell-based
[3] = molecular target: C-C chemokine receptor type 5 (Homo sapiens, UniProt P51681); experiment: Displacement of […] from CCR5 expressed in HEK293F cells; type: cell-based
C-C chemokine receptor type 5, sequence (P51681 whole entry): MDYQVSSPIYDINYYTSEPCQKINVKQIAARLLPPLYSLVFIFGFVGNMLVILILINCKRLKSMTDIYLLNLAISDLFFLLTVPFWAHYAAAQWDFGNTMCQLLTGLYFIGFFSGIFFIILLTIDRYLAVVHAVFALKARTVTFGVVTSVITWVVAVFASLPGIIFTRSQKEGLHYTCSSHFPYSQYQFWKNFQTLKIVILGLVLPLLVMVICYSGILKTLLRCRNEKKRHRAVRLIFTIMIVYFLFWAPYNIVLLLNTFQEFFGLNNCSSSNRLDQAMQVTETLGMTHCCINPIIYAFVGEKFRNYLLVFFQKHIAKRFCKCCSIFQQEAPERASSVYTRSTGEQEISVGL

[4] = Clearance in rat at 10 umol/kg, iv; type: ADME, organism-based; conditions: in vivo
[5] = Cmax in rat; type: ADME, organism-based; conditions: in vivo
[6] = Oral bioavailability in rat at 100 umol/kg; type: ADME, organism-based; conditions: in vivo
[7] = Volume of distribution at steady state in rat at 10 umol/kg, iv; type: ADME, organism-based; conditions: in vivo, read-out: Vdss
[8] = Half life in rat at 10 umol/kg, iv; type: ADME, organism-based; conditions: in vivo
[9] = AUC (0 to infinity) in rat; type: ADME, organism-based; set-up: time infinity; conditions: plasma
[10] = AUC (0 to infinity) in dog; type: ADME, organism-based, Canis lupus familiaris; set-up: time infinity; conditions: plasma
[11] = Half life in dog at 5 umol/kg, iv; type: ADME, organism-based, Canis lupus familiaris; conditions: in vivo
[12] = Cmax in dog; type: ADME, organism-based, Canis lupus familiaris; conditions: in vivo
[13] = Clearance in dog at 5 umol/kg, iv; type: ADME, organism-based, Canis lupus familiaris; conditions: in vivo
[14] = Volume of distribution at steady state in dog at 5 umol/kg, iv; type: ADME, organism-based, Canis lupus familiaris; conditions: in vivo, read-out: Vdss
[15] = Oral bioavailability in dog at 12.5 umol/kg; type: ADME, organism-based, Canis lupus familiaris; conditions: in vivo

| Compound | IC50 [1] | IC50 [3] | CC50 [2] | also measured |
| --- | --- | --- | --- | --- |
| COC(=O)c1cccc(OC(c2ccc(C(F)(F)F)cc2)C2CCN(C(C)CCNC(=O)c3c(Cl)cncc3Cl)CC2)c1 (mixture of isomers) | > 6260 nM |  | 15200 nM |  |
| Cc1cccc(OC(c2ccc(Br)cc2)C2CCN(C(C)CCNC(=O)c3c(Cl)cncc3Cl)CC2)n1 (mixture of isomers) | 1550 nM | 220 nM | 6500 nM |  |
| CC(CCNC(=O)c1c(Cl)cncc1Cl)N1CCC(C(Oc2ccccc2C#N)c2ccc(C(F)(F)F)cc2)CC1 (mixture of isomers) | 2870 nM | 100 nM | 17000 nM |  |
| CC(CCNC(=O)c1c(Cl)cncc1Cl)N1CCC(C(Oc2ccccn2)c2ccc(Br)cc2)CC1 (mixture of isomers) | 3760 nM | 140 nM | 33700 nM |  |
| CC(CCNC(=O)c1c(Cl)cncc1Cl)N1CCC(C(Oc2ccccc2C(F)(F)F)c2ccc(C(F)(F)F)cc2)CC1 (mixture of isomers) | 100 nM |  | 12500 nM |  |
| Cc1ccc(OC(c2ccc(Br)cc2)C2CCN(C(C)CCNC(=O)c3c(Cl)cncc3Cl)CC2)nc1 (mixture of isomers) | > 1290 nM | 3800 nM | 32200 nM |  |
| CC(CCNC(=O)c1c(Cl)cncc1Cl)N1CCC(C(Oc2ccccc2)c2ccc(Br)cc2)CC1 (configuration not stated) | > 1300 nM | 130 nM | 31700 nM |  |
| CCO/N=C(/c1ccc(Br)cc1)C1CCN(C2(C)CCN(C(=O)c3c(C)cc[n+]([O-])c3C)CC2)CC1 [SCHERING C] | 160 nM | 40 nM | > 1600 nM | clearance [4]: 31.7 mL/min/kg; Cmax [5]: 1600 nM; bioavailability [6]: 48%; Vd [7]: 7.2 L/kg; half-life [8]: 2.7 h; AUC(0-inf) [9]: 4.3 µM·h |
| CCO/N=C(/c1ccc(Br)cc1)C1CCN(C(C)CCNC(=O)c2c(Cl)cncc2Cl)CC1 (configuration not stated) | > 6700 nM | 130 nM | 33800 nM |  |
| CC(CCNC(=O)c1c(Cl)cncc1Cl)N1CCC(C(Oc2cccc(C(F)(F)F)n2)c2ccc(C(F)(F)F)cc2)CC1 (mixture of isomers) | 60 nM | 130 nM | 13500 nM |  |
| CCO/N=C(/c1ccc(Br)cc1)C1CCN(C(C)CNC(=O)c2c(C)cc[n+]([O-])c2C)CC1 (configuration not stated) | > 36400 nM | 17000 nM | 182000 nM |  |
| Cc1ccnc(OC(c2ccc(Br)cc2)C2CCN(C(C)CCNC(=O)c3c(Cl)cncc3Cl)CC2)c1 (mixture of isomers) | 1960 nM | 140 nM | 32500 nM |  |
| CC(CCNC(=O)c1c(Cl)cncc1Cl)N1CCC(C(Oc2cccc(Cl)n2)c2ccc(OC(F)(F)F)cc2)CC1 (mixture of isomers) | 2 nM | 30 nM | 6000 nM |  |
| CCO/N=C(/c1ccc(Br)cc1)C1CCN(C(CC)CCNC(=O)c2c(C)cc[n+]([O-])c2C)CC1 (configuration not stated) | > 32800 nM |  | > 178000 nM |  |
| CCO/N=C(/c1ccc(Br)cc1)C1CCN(C2(CCNC(=O)c3c(Cl)cncc3Cl)CC2)CC1 | > 6600 nM | 21400 nM | 33000 nM |  |
| CC(CCNC(=O)c1c(Cl)cncc1Cl)N1CCC(C(Oc2cccc(C(F)(F)F)c2)c2ccc(C(F)(F)F)cc2)CC1 (mixture of isomers) | 30 nM |  | 7000 nM |  |

| Compound | IC50 [1] | IC50 [3] | CC50 [2] | also measured |
| --- | --- | --- | --- | --- |
| CCO/N=C(/c1ccc(Br)cc1)C1CCN(C(C)CCNC(=O)c2c(C)cc[n+]([O-])c2C)CC1 (configuration not stated) | 2540 nM | 290 nM | > 178000 nM |  |
| CC(CCNC(=O)c1c(Cl)cncc1Cl)N1CCC(N(Cc2ccccc2)c2ccc(Br)cc2)CC1 (configuration not stated) | 220 nM | 30 nM | 4280 nM |  |
| CC(CCNC(=O)c1c(Cl)cncc1Cl)N1CCC(C(Oc2cccnc2)c2ccc(Br)cc2)CC1 (mixture of isomers) | 3300 nM | 970 nM | 32500 nM |  |
| CCO/N=C(/c1ccc(Br)cc1)C1CCN(C(C)CCN(C)C(=O)c2c(C)cc[n+]([O-])c2C)CC1 (configuration not stated) | > 36500 nM | 5620 nM | > 183000 nM |  |
| CC(CCNC(=O)c1c(Cl)cncc1Cl)N1CCC(C(Oc2cccc(Cl)n2)c2ccc(S(C)(=O)=O)cc2)CC1 (mixture of isomers) | 4 nM | 10 nM | > 29500 nM |  |
| CC(CCNC(=O)c1c(Cl)cncc1Cl)N1CCC(C2(c3ccc(C(F)(F)F)cc3)Cc3ccccc3O2)CC1 (configuration not stated) | 220 nM | 40 nM | 33800 nM |  |
| CCO/N=C(/c1ccc(Br)cc1)C1CCN(CCCNC(=O)c2c(C)cc[n+]([O-])c2C)CC1 | > 1500 nM | 180 nM | 7500 nM |  |
| CCO/N=C(/c1ccc(Br)cc1)C1CCN(CCNC(=O)c2c(C)cc[n+]([O-])c2C)CC1 | > 39200 nM |  | 196000 nM |  |
| CC(CCNC(=O)c1c(Cl)cncc1Cl)N1CCC(C(Oc2ccc(C(F)(F)F)cc2)c2ccc(C(F)(F)F)cc2)CC1 (mixture of isomers) | > 1230 nM |  | 3100 nM |  |
| CC(CCNC(=O)c1c(Cl)cncc1Cl)N1CCC(C(Oc2cccc(C#N)c2)c2ccc(C(F)(F)F)cc2)CC1 (mixture of isomers) | 480 nM | 50 nM | 15700 nM |  |
| CCO/N=C(/c1ccc(Br)cc1)C1CCN(C(C)(C)CCNC(=O)c2c(Cl)cncc2Cl)CC1 | > 6810 nM | 1760 nM | 34000 nM |  |
| CC(CCNC(=O)c1c(Cl)cncc1Cl)N1CCC(C(O)c2ccc(Br)cc2)CC1 (configuration not stated) | > 39600 nM | 3390 nM | 198000 nM |  |
| CC(CCNC(=O)c1c(Cl)cncc1Cl)N1CCC(C(Oc2ccncc2)c2ccc(Br)cc2)CC1 (mixture of isomers) | > 240 nM |  | 31200 nM |  |
| CC(CCNC(=O)c1c(Cl)cncc1Cl)N1CCC(C2=NOCc3cc(Br)ccc32)CC1 (configuration not stated) | > 7400 nM | 12300 nM | 185000 nM |  |
| CC(CCNC(=O)c1c(Cl)cncc1Cl)N1CCC(C(=O)c2ccc(Br)cc2)CC1 (configuration not stated) | 32600 nM |  | 189000 nM |  |
| CC(CCNC(=O)c1c(Cl)cncc1Cl)N1CCC(C2(c3ccc(C(F)(F)F)cc3)Oc3ccccc3O2)CC1 (configuration not stated) | 10 nM | 30 nM | 7800 nM |  |

Further lines, with some results ahead:

| IC50 [1] | IC50 [3] | Compound | CC50 [2] | also measured |
| --- | --- | --- | --- | --- |
| > 28700 nM |  | CC(CCNC(=O)c1c(Cl)cncc1Cl)N1CCC(C(Oc2cccc(C(=O)O)n2)c2ccc(C(F)(F)F)cc2)CC1 (mixture of isomers) | 28700 nM |  |
| 9 nM | 40 nM | CC(CCNC(=O)c1c(Cl)cncc1Cl)N1CCC(C(Oc2cccc(C#N)n2)c2ccc(C(F)(F)F)cc2)CC1 (mixture of isomers) | 15700 nM |  |
| > 1300 nM |  | COc1cccc(OC(c2ccc(C(F)(F)F)cc2)C2CCN(C(C)CCNC(=O)c3c(Cl)cncc3Cl)CC2)n1 (mixture of isomers) | 32700 nM |  |
| 1270 nM | 50 nM | CC(CCNC(=O)c1c(Cl)cncc1Cl)N1CCC(C(Oc2ccccc2)c2ccc(C(F)(F)F)cc2)CC1 (mixture of isomers) | 6800 nM |  |
| > 6720 nM | 50 nM | Cc1ccnc(OC(c2ccc(C(F)(F)F)cc2)C2CCN(C(C)CCNC(=O)c3c(Cl)cncc3Cl)CC2)c1 (mixture of isomers) | 33600 nM |  |
| 9 nM | 20 nM | CC(CCNC(=O)c1c(Cl)cncc1Cl)N1CCC(C(Oc2cccc(Cl)n2)c2ccc(C(F)(F)F)cc2)CC1 (mixture of isomers) | > 32500 nM | clearance [4]: 142 mL/min/kg; AUC(0-inf) [10]: 0.5 µM·h; Cmax [5]: 200 nM; bioavailability [6]: 20%; Vd [7]: 15.2 L/kg; half-life [11]: 7.7 h; Cmax [12]: 100 nM; half-life [8]: 1.2 h; clearance [13]: 31.7 mL/min/kg; Vd [14]: 20.8 L/kg; AUC(0-inf) [9]: 2.4 µM·h; bioavailability [15]: 6% |
| 130 nM | 30 nM | CC(CCNC(=O)c1c(Cl)cncc1Cl)N1CCC(C(Oc2ccccn2)c2ccc(C(F)(F)F)cc2)CC1 (mixture of isomers) | 34100 nM |  |
| > 1270 nM | 120 nM | CC(CCNC(=O)c1c(Cl)cncc1Cl)N1CCC(C(Oc2ccccc2Cl)c2ccc(C(F)(F)F)cc2)CC1 (mixture of isomers) | 4400 nM |  |
| 430 nM | 70 nM | CC(CCNC(=O)c1c(Cl)cncc1Cl)N1CCC(C(Oc2cc(Cl)ccn2)c2ccc(C(F)(F)F)cc2)CC1 (mixture of isomers) | 4260 nM |  |
| 340 nM | 190 nM | Cc1cccnc1OC(c1ccc(Br)cc1)C1CCN(C(C)CCNC(=O)c2c(Cl)cncc2Cl)CC1 (mixture of isomers) | 32100 nM |  |
| 170 nM | 40 nM | Cc1cccc(OC(c2ccc(C(F)(F)F)cc2)C2CCN(C(C)CCNC(=O)c3c(Cl)cncc3Cl)CC2)n1 (mixture of isomers) | 6700 nM |  |
| 80 nM | 140 nM | CC(CCNC(=O)c1c(Cl)cncc1Cl)N1CCC(C(Oc2ncccc2Cl)c2ccc(C(F)(F)F)cc2)CC1 (mixture of isomers) | 16700 nM |  |
| 230 nM | 40 nM | CC(CCNC(=O)c1c(Cl)cncc1Cl)N1CCC(C(Oc2cccc(F)c2)c2ccc(C(F)(F)F)cc2)CC1 (mixture of isomers) | 5400 nM |  |
| 70 nM | 60 nM | CC(CCNC(=O)c1c(Cl)cncc1Cl)N1CCC(C(Oc2cccc(Cl)c2)c2ccc(C(F)(F)F)cc2)CC1 (mixture of isomers) | 8100 nM |  |
| 520 nM | 1050 nM | COC(=O)c1cccc(OC(c2ccc(C(F)(F)F)cc2)C2CCN(C(C)CCNC(=O)c3c(Cl)cncc3Cl)CC2)n1 (mixture of isomers) | 14600 nM |  |
| 2950 nM | 60 nM | Cc1cccnc1OC(c1ccc(C(F)(F)F)cc1)C1CCN(C(C)CCNC(=O)c2c(Cl)cncc2Cl)CC1 (mixture of isomers) | 33000 nM |  |
